Results on 16 molecules are retold here after PubChem BioAssay (NCI).

Assay in all cases: growth of human tumour cells (NCI), 48 h
In experiment [1] the test system is HCT-116 colon.
Experiment [2] relates to NCI-H23 lung.
Experiment [3] concerns OVCAR-4 ovarian.
For experiment [4], the system named is OVCAR-8 ovarian.
For experiment [5], the system named is PC-3 prostate.
The test system of experiment [6] is RPMI-8226 leukemia.
Experiment [7] has as its system SF-295 CNS.
Experiment [8] relates to SNB-75 CNS.

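A five-concentration, 48-hour dose response in 96-well plates underlies each endpoint, interpolated linearly between surrounding concentrations. GI50 is the concentration that inhibits growth by half. TGI: total growth inhibition.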

For the molecule `O=c1cc(N2CCOCC2)[nH]c(=O)n1-c1ccc(F)cc1`, the TGI in experiment [1], in experiment [2], in experiment [3], in experiment [4], in experiment [5] and in experiment [6] was > 100 µM in each case. For the same molecule, the TGI in experiment [7] and in experiment [8] was > 100 µM throughout.

With `Oc1c(C2=NNC(c3ccc(Cl)cc3Cl)C2)ccc2ccccc12` (configuration not stated), the TGI in experiment [1], in experiment [2], in experiment [3], in experiment [4], in experiment [5] and in experiment [6] was > 100 µM throughout. Further, the TGI in experiment [7] and in experiment [8] was > 100 µM each time.

`O=C(NCC(=O)N1CCCC1C(=O)OC(=O)C1CCCN1C(=O)CNC(=O)OCc1ccccc1)OCc1ccccc1` (configuration not stated): the TGI in experiment [1] was > 100 µM; in experiment [2], > 100 µM; in experiment [3], > 100 µM; in experiment [4], > 100 µM; in experiment [5], > 100 µM; in experiment [6], 70.2 µM. In addition, the TGI is 47.8 µM in experiment [7] and 57.2 µM in experiment [8].

Take `CC(C)(Br)C(Br)CCC1(C2CO2)CO1` (configuration not stated): the TGI in experiment [1], in experiment [2], in experiment [3], in experiment [4], in experiment [5] and in experiment [6] was > 5 µM throughout. For the same molecule, the TGI in experiment [7] and in experiment [8] was > 5 µM in each case.

With `CN(C)CCCNC(=O)c1cc2[nH]c3c(cnc4ccc([N+](=O)[O-])cc43)c(=O)c2n1C`, the GI50 was 6.8 µM in experiment [1]; 20.5 µM in experiment [2]; 14 µM in experiment [3]; 20.2 µM in experiment [4]; 5.83 µM in experiment [6]; 26.9 µM in experiment [7]. In addition, in experiment [8], the GI50 was 15.5 µM. The TGI in experiment [1] came out at 20.1 µM; in experiment [2], 44.1 µM; in experiment [3] it was 31.6 µM; in experiment [4] it was 43.2 µM; in experiment [6], 19.3 µM; in experiment [7] it was 51.4 µM. The TGI in experiment [8] was 28.9 µM.

As for `CCCn1c2ccccc2c2ccc3c(c21)C(=O)C=CC3=O`, the TGI in experiment [1] was 3.13 µM; in experiment [2], 5.99 µM; in experiment [3] it was 4.07 µM; in experiment [4], > 6.96 µM; in experiment [5], > 8.03 µM; in experiment [6], 5.4 µM. In addition, the TGI in experiment [7] and in experiment [8] was > 10 µM each time.

`Cc1cc(C)n(C(=C(C(Cl)=C(Cl)Cl)[N+](=O)[O-])n2nc(C)cc2C)n1`: the TGI in experiment [1] came out at 14.5 µM; in experiment [2], 12.8 µM; in experiment [3], 7.47 µM; in experiment [4], 9.22 µM; in experiment [5] it was 13.6 µM; in experiment [7], 14.8 µM. In experiment [8], this molecule showed a TGI of 18.1 µM.

In the case of `CC1(C)CC(=O)c2[nH]c3ccccc3c2CC(=O)NCCc2cn1cn2`, the TGI in experiment [1], in experiment [2], in experiment [3], in experiment [4], in experiment [5] and in experiment [7] was > 100 µM in each case. Further, the TGI in experiment [8] is > 100 µM.

As to `CC(=O)Nc1ccc(C(=O)NN2C(=O)CSC2c2ccc([N+](=O)[O-])cc2)cc1` (configuration not stated), the TGI in experiment [1], in experiment [2], in experiment [3], in experiment [4], in experiment [6] and in experiment [7] was > 100 µM each time. Moreover, the TGI in experiment [8] is > 100 µM.

As for `CCOC(=O)c1c(-c2ccc(OC)cc2)c(C#N)c(=S)n(C2OC(COC(C)=O)C(OC(C)=O)C(OC(C)=O)C2OC(C)=O)c1-c1ccccc1` (configuration not stated), the TGI in experiment [1], in experiment [2], in experiment [3], in experiment [5], in experiment [6] and in experiment [7] was > 100 µM each time. In experiment [8], the TGI is > 100 µM.

Consider `Nc1ccc(-c2nc3cc(F)ccc3s2)cc1Cl`, for which the TGI was > 100 µM in experiment [1]; > 100 µM in experiment [3]; > 100 µM in experiment [4]; > 100 µM in experiment [5]; > 100 µM in experiment [6]; > 72.3 µM in experiment [7]. The TGI in experiment [8] was found to be 51.8 µM.

Consider `COC(=O)CC(C#N)(OP1(=O)OC(c2ccccc2)C(C)N1C)c1ccccc1` (configuration not stated), for which the TGI in experiment [1] is 52.4 µM; in experiment [2], 97.9 µM; in experiment [4], 67.1 µM; in experiment [5] it was > 100 µM; in experiment [6] it was 70.2 µM; in experiment [7] it was > 100 µM. The TGI in experiment [8] is > 100 µM.

As for `C=C1C(=O)C[C@H]2C(=C)C(=O)O[C@@H]2C2C1CC[C@@]2(C)O` (some centres not stated), the TGI in experiment [1] is > 100 µM; in experiment [2] it was 59.4 µM; in experiment [4] it was > 100 µM; in experiment [5] it was > 100 µM; in experiment [6] it was > 100 µM; in experiment [7], > 100 µM. For the same molecule, the TGI in experiment [8] was > 100 µM.

On to `CC(C)(C)[Si](C)(C)OCC1OC(n2ccc(N)nc2=O)C(O[Si](C)(C)C(C)(C)C)C1O[Si](C)(C)C(C)(C)C` (configuration not stated), for which the TGI in experiment [1] worked out at 11.6 µM; in experiment [3], 2.21 µM; in experiment [4] it was 5.68 µM; in experiment [5], 3.65 µM; in experiment [7], 3.75 µM; in experiment [8], 14.2 µM.

On to `Cc1cc2c(cc1Cl)SC(NS(=O)(=O)c1ccc(Cl)cc1)=NS2(=O)=O`, for which the TGI in experiment [1] was > 100 µM; in experiment [2] it was > 100 µM; in experiment [3], > 100 µM; in experiment [6] it was > 100 µM; in experiment [7], 88.3 µM; in experiment [8] it was > 100 µM.

For the molecule `CC(C)CC1C(=O)NCCC(NC(=O)C(Cc2ccc(OC(C)(C)C)cc2)NC(=O)OC(C)(C)C)C(=O)NC(Cc2ccccc2)C(=O)NC(Cc2ccccc2)NC1=O` (configuration not stated), the TGI in experiment [1] came to 17.4 µM; in experiment [2], 33.7 µM; in experiment [3], 34.6 µM; in experiment [4] it was 20.6 µM; in experiment [5], 46.1 µM; in experiment [6], 54.4 µM. The molecule further gave a TGI in experiment [7] of 22.8 µM.
